{"source": "patent US20240115532A1", "about": "“USE OF L-ERGOTHIONEINE FOR ALLEVIATING AND PREVENTING AGE-RELATED VISUAL DEGENERATION” (NANJING NUTRABUILDING BIO-TECH CO., LTD., priority 2021, published 2024)", "key": {"[1]": {"system": "subretinal choroidal neovascularization (CNV)", "assay": "Fluorescein angiography of Matrigel-induced subretinal CNV in aged mice", "type": "in vivo, C57BL/6J mice", "conditions": "2 or 10 mg/kg/d by gavage for 5 months", "from_the_text": "The healthy and male C57BL/6J mice at 18-24 months of age were maintained under the barrier conditions in a temperature-controlled environment and fed a commercial mouse chow.\nThe healthy and male C57BL/6J mice at 14-18 months of age were maintained under the barrier conditions in a temperature-controlled environment and fed a commercial mouse chow.\nAnimal mode of subretinal choroidal neovascularization (CNV): All mice were subretinally injected with Matrigel in both eyes under general anesthesia. The liquid Matrigel (75% v/v) was prepared using phosphate-buffered saline (PBS) at 4° C. After exposing the sclera, an incision was made between the limbus and the equator using a sharp No. 33 size needle. The Matrigel suspension (0.5 μl per eye) administered via a Hamilton microsyringe with a No. 33 blunt tip needle was slowly injected into the subretinal space along the previous needle tract. Following injection, the Matrigel polymerized to form a solid gel. Fluorescence angiograms were performed over a period of 3 weeks to identify whether mice have CNV.\nFluorescein angiography: After subretinal injection, fluorescein angiograms were obtained on days 3, 7, 10, 14, and 21. Briefly, every mouse group (n=5) were anesthetized with ketamine and xylazine, and the pupils were dilated with 0.5% tropicamide eye drops. […]"}, "[2]": {"system": "Reactive oxygen species (ROS)", "assay": "ROS in retina tissue by 2',7'-dichlorofluorescein diacetate fluorescence", "type": "in vivo, C57BL/6J mice", "conditions": "aged mice, 2 or 10 mg/kg/d by gavage for 5 months", "procedure": "(§1) They were randomly divided into three groups: (1) non-supplement group (Con, n=6); (2) L-Ergothioneine supplement group with low dosage (L-Ergothioneine, 2 mg/kg/d, n=6); (3) L-Ergothioneine supplement group with high dosage (L-Ergothioneine, 10 mg/kg/d, n=6). Some mice were administered L-Ergothioneine for once daily by gavage in normal saline solution for 5 months.\n(§2) Mice were euthanized by CO2 inhalation followed by cervical dislocation at the end of study and their eyes were immediately removed. The eyes of some mice (n=3) fixed in 2% paraformaldehyde for 2 h and the retina samples of some mice (n=3) were isolated from eyes radically. All tissues were frozen in optimal cutting temperature embedding compound.\nPartial retina tissues were obtained and rapidly broken up in ice-cold normal saline. A tissue homogenate (10%, w/v) was then prepared.\nAntioxidant capacity of the retina was measured using an assay based on the ability of the sample to inhibit the oxidation of 2,2′-azino-di-[3-ethylbenzthiazoline sulfonate]+(ABTS) by metmyoglobin. The amount of ABTS+ produced was measured in terms of the decrease in absorbance caused by the antioxidants in the sample. Reactive oxygen species (ROS) were quantified by fluorescence spectroscopy using 2′,7′-dichlorofluorescein diacetate."}, "Nrf2": {"system": "Nrf2", "assay": "Nrf2 real-time PCR in retina tissues", "type": "in vivo, C57BL/6J mice", "conditions": "aged mice, 2 or 10 mg/kg/d by gavage for 5 months", "procedure": "as §1, §2\nTotal RNA was isolated from retina tissues using Trizol reagent. Real-time PCR was measured and performed with the following primers: Nrf2 forward 5′-[…]-3′. RNA samples were reverse-transcribed to cDNA and subjected to quantitative PCR, performed with a Light Cycler 96 Real-Time PCR System using the AceQ qPCR SYBR Green Master Mix. Nrf2 measurements can be identify the capacity of L-Ergothioneine-mediated Nrf2."}, "VEGF": {"system": "VEGF", "assay": "VEGF ELISA in retina tissue homogenate", "type": "in vivo, C57BL/6J mice", "conditions": "aged mice, 2 or 10 mg/kg/d by gavage for 5 months", "protocol": "They were randomly divided into three groups: (1) non-supplement group (Con, n=6); (2) L-Ergothioneine supplement group with low dosage (L-Ergothioneine, 2 mg/kg/d, n=6); (3) L-Ergothioneine supplement group with high dosage (L-Ergothioneine, 10 mg/kg/d, n=6). Some mice were administered L-Ergothioneine for once daily by gavage in normal saline solution for 5 months. […] Partial retina tissues were obtained and rapidly broken up in ice-cold normal saline. A tissue homogenate (10%, w/v) was then prepared. Retina tissues homogenate was centrifuged (2000 rpm, 10 min, 4° C.) and the supernatants were collected and applied to a pre-coated human VEGF microplate. VEGF concentrations was measured in experimental groups of mice using enzyme-linked immunosorbent assay (ELISA) kits to evaluate the levels of proinflammatory cytokines in the retina. This test can assess that the ability of L-Ergothioneine to prevent age-related visual degeneration-induced increases in VEGF level."}, "[3]": {"system": "oxidation-induced EMT in RPE", "assay": "Immunoreactivity of mesenchymal markers (Slug, Snail, vimentin, OB-cadherin) in RPE sections", "type": "in vivo, C57BL/6J mice", "conditions": "aged mice, 2 or 10 mg/kg/d by gavage for 5 months", "procedure": "as §1, §2\nFrom paraffin embedded blocks, 3 μm-thick parasagittal serial sections were cut with a microtome for future testing the immunoreactivity of mesenchymal markers. The immunoreactivity of mesenchymal markers (Slug, Snail, vimentin, OB-cadherin) was examined with a confocal microscope. And semi-quantitative comparative densitometric analysis performed by ImageJ of the immunoreactivity of the mesenchymal markers in 1-μm parasagittal sections of RPE. Alexa Fluor secondary antibodies were used to detect specific mesenchymal markers. DAPI (4,6-diamidino-2-fenilindole, dihydrochloride) was used to stain the nuclei of RPE cells."}, "[4]": {"system": "subretinal choroidal neovascularization", "assay": "Zebrafish wet macular degeneration model (cobalt chloride), choroidal vessel area", "type": "in vivo", "conditions": "500, 1000, 2000 μg/mL in water, 3 days, 28° C., FIG. 1", "procedure": "Experimental animals: Zebrafish were raised in fish water at 28° C. (water quality: 200 mg of instant sea salt was added to each 1 L of reverse osmosis water, the conductivity was 450-550 μS/cm; pH was 6.5-8.5; hardness was […] CaCO3). Transgenic vascular green fluorescent zebrafish (Fli-1 strain) were reproduced by natural paired mating. Age is 1 day after fertilization (1 dpf).\nSample preparation: L-Ergothioneine, white powder, was prepared into 2.00 mg/mL mother solution with standard dilution water. Positive control: Aescin and digitalis double glucoside eye drops was directly sucked the original solution.\nExperimental design: The transgenic vascular green fluorescent strain zebrafish aged 1 day after fertilization (1 dpf) were randomly selected and placed in a 6-well plate, with 30 fish in each well (each experimental group). L-Ergothioneine (concentrations of 500, 1000, and 2000 μg/mL) were administered in water solution, respectively, and the positive control escin and digitalis glucoside eye drops (containing 0.3 μg/mL of digitonin and 2.0 μg/mL of escin) were administered, respectively. […] After 3 days of treatment at 28° C., 10 zebrafish were randomly selected from each experimental group and placed under a fluorescence microscope to take pictures, and the NIS-Elements D 3.20 advanced image processing software was used to analyze and collect the data. […]"}, "[5]": {"system": "zebrafish retinal structure", "assay": "Zebrafish eye histopathology (H&E) after cobalt chloride model", "type": "in vivo", "conditions": "FIG. 2", "from_the_text": "Experimental animals, sample preparation, sample processing and administration are same as test 4. After that, these zebrafish after 3 days of administration were fixed with 4% histiocyte fixative, then stained with H&E and they were subject to test ocular histopathological analysis."}, "ROS": {"system": "ROS", "assay": "Zebrafish ROS fluorescence value (CM-H2DCFDA)", "type": "in vivo", "conditions": "wild-type AB strain, 500, 1000, 2000 μg/mL, 2 days plus 20 hours staining, FIG. 3", "procedure": "After 2 days of supplementation at 28° C., zebrafish were stained with CM-H2DCFDA, and the original concentration in each well remained unchanged. 10 zebrafish were randomly selected from each experimental group and transferred to black 96 microtiter plates."}, "VEGFR1 genes": {"system": "VEGFR1 genes", "assay": "Zebrafish q-PCR of VEGFR1 genes", "type": "in vivo", "conditions": "3 days at 28° C., β-actin internal reference, FIG. 4", "procedure": "Except that the positive control is bevacizumab (a potent antiangiogenic substance), experimental animals, sample preparation of L-Ergothioneine and sample processing are the same as in test 4.\n(§3) After 3 days of supplementation at 28° C., the total RNA of each group of zebrafish was extracted using an RNA rapid extraction kit, and the concentration and purity of total RNA were determined by UV-Vis spectrophotometer. Take 2.00 μg of total RNA from zebrafish samples and follow the instructions of the first-strand cDNA synthesis kit to synthesize 20.0 μL of cDNA, and detect the expression of ß-actin and VEGFR1 genes by q-PCR. Using 6-actin as an internal reference for gene expression, the relative RNA expression levels of VEGFR1 genes were calculated."}, "hif-1α genes": {"system": "hif-1α genes", "assay": "Zebrafish q-PCR of hif-1α genes", "type": "in vivo", "conditions": "3 days at 28° C., FIG. 5", "procedure": "as §3\n(§4) The other test condition and methods are the same as test 7. Except that just detect 6-actin, hif-1α and vegfaa genes by q-PCR."}, "vegfaa genes": {"system": "vegfaa genes", "assay": "Zebrafish q-PCR of vegfaa genes", "type": "in vivo", "conditions": "3 days at 28° C., FIG. 6", "procedure": "as §3, §4"}}, "data": [{"smiles": "C[N+](C)(C)[C@@H](Cc1c[nH]c(=S)[nH]1)C(=O)[O-]", "note": "[L-Ergothioneine]", "values": [{"measurement": "CNV level", "setting": "[1]", "value": "attenuated obviously"}, {"measurement": "scavenging of chronic ROS in retina", "setting": "[2]", "value": "about 45%"}, {"measurement": "activation of Nrf2-mediated genes in retina", "setting": "Nrf2", "value": "activated"}, {"measurement": "decrease of VEGF level in retina", "setting": "VEGF", "value": "about 50%"}, {"measurement": "mesenchymal marker immunoreactivity in RPE", "setting": "[3]", "value": "decreased"}, {"measurement": "oxidation-induced EMT / epithelial fibrosis in RPE", "setting": "[3]", "value": "inhibited"}, {"measurement": "choroidal vessel area of the zebrafish eye", "setting": "[4]", "value": "could mitigate subretinal choroidal neovascularization"}, {"measurement": "damage of zebrafish retinal structure (histopathological section)", "setting": "[5]; 500, 1000, 2000 μg/mL, 3 days, H&E", "value": "can improve the damage of zebrafish retinal structure"}, {"measurement": "effect on retinal structure compared with positive control eye drops", "setting": "[5]; versus aescin and digitalis double glucoside eye drops", "value": "better than that of aescin and digitalis double glucoside eye drops"}, {"measurement": "ROS fluorescence value of zebrafish", "setting": "ROS", "value": "good effect on preventing retinal degeneration"}, {"measurement": "relative expression level of VEGFR1 genes", "setting": "VEGFR1 genes", "value": "decreasing the expression of VEGFR1 genes"}, {"measurement": "relative expression level of hif-1α genes", "setting": "hif-1α genes", "value": "lowering the expression level"}, {"measurement": "relative expression level of vegfaa genes", "setting": "vegfaa genes", "value": "lowering the expression level"}]}]}
